# In ChEMBL document CHEMBL1949618, “Synthesis and properties of mRNA cap analogs containing imidodiphosphate moiety--fairly mimicking natural cap structure, yet resistant to enzymatic hydrolysis” (Bioorg Med Chem, 2012):
# Calls of active or inactive are those of the source. The calls are words filed in the database; no cut-off is given here.
# Assays:
# [1] = Chemical stability of the compound in aqueous buffer at pH 8 assessed as decomposition at 5 mM after 24 hrs by RP-HPLC; format: physicochemical; conditions: read-out: Drug degradation
# [2] = Stability of the compound assessed as human recombinant DcpS -mediated hydrolysis after 2 hrs by HPLC; format: ADME
# [3] = molecular target: Eukaryotic translation initiation factor 4E (Homo sapiens) (UniProt P06730); assay: Binding affinity to recombinant eIF4E by fluorescence quenching titration method
# Sequence of Eukaryotic translation initiation factor 4E (Homo sapiens) (P06730 whole entry): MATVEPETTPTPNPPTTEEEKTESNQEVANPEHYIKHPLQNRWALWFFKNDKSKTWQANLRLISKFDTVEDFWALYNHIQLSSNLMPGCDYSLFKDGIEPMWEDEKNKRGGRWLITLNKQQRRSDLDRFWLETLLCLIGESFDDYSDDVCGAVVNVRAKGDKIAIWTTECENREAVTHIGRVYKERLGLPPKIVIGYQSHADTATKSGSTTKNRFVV
# Homo sapiens = species on record: Homo sapiens; assay: Selectivity ratio of Ka for human recombinant DcpS to Ka for eIF4E
# [4] = Chemical stability of the compound in aqueous buffer at pH 2 assessed as decomposition at 5 mM up to 2 hrs by RP-HPLC; format: physicochemical; conditions: pH 2, 2 h, 5000 µM
# [5] = Chemical stability of the compound in aqueous buffer at pH 6 assessed as decomposition at 5 mM up to 2 hrs by RP-HPLC; format: physicochemical; conditions: pH 6, 2 h, 5000 µM
# [6] = Chemical stability of the compound in aqueous buffer at pH 2 assessed as decomposition at 5 mM after 24 hrs by RP-HPLC; format: physicochemical; conditions: read-out: Drug degradation
# [7] = Chemical stability of the compound in aqueous buffer at pH 8 assessed as decomposition at 5 mM up to 2 hrs by RP-HPLC; format: physicochemical; conditions: pH 8, 2 h, 5000 µM
# [8] = molecular target: T1, m7GpppX diphosphatase (Homo sapiens) (UniProt Q96C86)
# T1 sequence (whole entry): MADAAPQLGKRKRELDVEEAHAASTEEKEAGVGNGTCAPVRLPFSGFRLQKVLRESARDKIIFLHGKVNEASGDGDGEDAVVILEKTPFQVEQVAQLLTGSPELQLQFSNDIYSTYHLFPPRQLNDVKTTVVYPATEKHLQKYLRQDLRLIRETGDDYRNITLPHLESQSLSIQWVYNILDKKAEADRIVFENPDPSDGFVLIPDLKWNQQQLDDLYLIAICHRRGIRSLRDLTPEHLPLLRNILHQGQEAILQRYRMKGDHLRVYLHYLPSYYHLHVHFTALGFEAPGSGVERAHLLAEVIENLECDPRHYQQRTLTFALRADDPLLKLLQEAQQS
# Description: Binding affinity to human recombinant DcpS by fluorescence quenching titration method
# [9] = Chemical stability of the compound in aqueous buffer at pH 6 assessed as decomposition at 5 mM after 24 hrs by RP-HPLC; format: physicochemical; conditions: read-out: Drug degradation
# [10] = molecular target: T2, Eukaryotic translation initiation factor 4E (Oryctolagus cuniculus, UniProt P29338); assay: Inhibition of eIF4E-mediated mRNA translation in rabbit reticulocyte lysate pre-incubated for 60 mins prior to mRNA addition by luciferase reporter gene assay
# T2 sequence (P29338 whole entry): as the sequence (P06730 whole entry) above, with T16P, T17A, E174D counted along it
# [11] = Stability of the compound at -20 degreeC after 12 months; format: physicochemical; conditions: 8766 h
# [12] = molecular target: T2, Eukaryotic translation initiation factor 4E; assay: Inhibition of eIF4E-mediated mRNA translation in rabbit reticulocyte lysate by luciferase reporter gene assay
# [13] = molecular target: Eukaryotic translation initiation factor 4E (Oryctolagus cuniculus) (UniProt P29338); assay: Inhibition of eIF4E-mediated mRNA translation in rabbit reticulocyte lysate assessed as translation efficiency after 60 mins by luciferase reporter gene assay relative to m7GpppG-capped mRNA
# Sequence of Eukaryotic translation initiation factor 4E (Oryctolagus cuniculus) (P29338 whole entry): as the sequence (P06730 whole entry) above, with T16P, T17A, E174D counted along it
# Nucleic Acid = assay: Capping efficiency in mRNA after 60 mins by gel electrophoresis in the presence of SP6 polymerase; format: nucleic-acid assay
smiles,measurement,setting,value
C[n+]1cn([C@@H]2O[C@H](COP(=O)([O-])NP(=O)([O-])OP(=O)([O-])OP(=O)([O-])OC[C@H]3O[C@@H](n4cnc5c(=O)[nH]c(N)nc54)[C@H](O)[C@@H]3O)[C@@H](O)[C@H]2O)c2nc(N)[nH]c(=O)c21.[Na+].[Na+].[Na+],"degraded at 24 h, 5000 µM",[1],< 10%
same,Drug degradation,[2],Not Active
same,Ka,[3],112 µM⁻¹
same,Ratio,Homo sapiens,1.4
same,Drug degradation,[4],Not Active
same,Drug degradation,[5],Not Active
same,"degraded at 24 h, 5000 µM",[6],< 10%
same,Drug degradation,[7],Not Active
same,Ka,[8],155 µM⁻¹
same,"degraded at 24 h, 5000 µM",[9],< 10%
same,IC50,[10],3.58 µM
same,Stability,[11],Stable
same,IC50,[12],2.62 µM
CO[C@@H]1[C@H](O)[C@@H](COP(=O)(O)OP(=O)([O-])OP(=O)(O)CP(=O)(O)OC[C@H]2O[C@@H](n3cnc4c(=O)[nH]c(N)nc43)[C@H](O)[C@@H]2O)O[C@H]1n1c[n+](C)c2c(O)nc(N)nc21,fold change (FC),[13],1.56
CO[C@@H]1[C@H](O)[C@@H](COP(=O)(O)CP(=O)(O)OP(=O)([O-])OC[C@H]2O[C@@H](n3cnc4c(=O)[nH]c(N)nc43)[C@H](O)[C@@H]2O)O[C@H]1n1c[n+](C)c2c(O)nc(N)nc21,fold change (FC),[13],1.1
C[n+]1cn([C@@H]2O[C@H](COP(=O)(S)OP(=O)(O)OP(=O)([O-])OC[C@H]3O[C@@H](n4cnc5c(=O)[nH]c(N)nc54)[C@H](O)[C@@H]3O)[C@@H](O)[C@H]2O)c2nc(N)[nH]c(=O)c21 (some centres not stated),Ka,[8],146 µM⁻¹
CO[C@@H]1[C@H](O)[C@@H](COP(=O)([O-])NP(=O)(O)OP(=O)(O)OP(=O)(O)OC[C@H]2O[C@@H](n3cnc4c(=O)[nH]c(N)nc43)[C@H](O)[C@@H]2O)O[C@H]1n1c[n+](C)c2c(=O)[nH]c(N)nc21.N.N.N,Activity,Nucleic Acid,Active
same,"degraded at 24 h, 5000 µM",[1],< 10%
same,Drug degradation,[2],Not Active
same,Ka,[3],125 µM⁻¹
same,Ratio,Homo sapiens,0.38
same,Drug degradation,[4],Not Active
same,Drug degradation,[5],Not Active
same,"degraded at 24 h, 5000 µM",[6],< 10%
same,fold change (FC),[13],0.73
same,Drug degradation,[7],Not Active
same,Ka,[8],47.4 µM⁻¹
same,"degraded at 24 h, 5000 µM",[9],< 10%
same,Stability,[11],Stable
CO[C@@H]1[C@H](O)[C@@H](COP(=O)([O-])NP(=O)([O-])OP(=O)([O-])OC[C@H]2O[C@@H](n3cnc4c(=O)[nH]c(N)nc43)[C@H](O)[C@@H]2O)O[C@H]1n1c[n+](C)c2c(=O)[nH]c(N)nc21.[Na+].[Na+],Activity,Nucleic Acid,Active
same,"degraded at 24 h, 5000 µM",[1],< 10%
same,Drug degradation,[2],Not Active
same,Ka,[3],18.5 µM⁻¹
same,Ratio,Homo sapiens,1.8
same,Drug degradation,[4],Not Active
same,Drug degradation,[5],Not Active
same,"degraded at 24 h, 5000 µM",[6],< 10%
same,fold change (FC),[13],1.13
same,Drug degradation,[7],Not Active
same,Ka,[8],33.6 µM⁻¹
same,"degraded at 24 h, 5000 µM",[9],< 10%
same,Stability,[11],Stable
C[n+]1cn([C@@H]2O[C@H](COP(=O)(O)OP(=O)(O)OP(=O)([O-])OP(=O)(O)OC[C@H]3O[C@@H](n4cnc5c(=O)[nH]c(N)nc54)[C@H](O)[C@@H]3O)[C@@H](O)[C@H]2O)c2nc(N)nc(O)c21,Ka,[3],111 µM⁻¹
C[n+]1cn([C@@H]2O[C@H](COP(=O)(O)OP(=O)(O)OP(=O)(O)OP(=O)(O)OC[C@H]3O[C@@H](n4cnc5c(=O)[nH]c(N)nc54)[C@H](O)[C@@H]3O)[C@@H](O)[C@H]2O)c2nc(N)[n-]c(=O)c21,Drug degradation,[2],Active
same,IC50,[10],> 20 µM
same,IC50,[12],5 µM
C[n+]1cn([C@@H]2O[C@H](COP(=O)(O)OP(=O)([O-])OP(=O)(O)OC[C@H]3O[C@@H](n4cnc5c(=O)[nH]c(N)nc54)[C@H](O)[C@@H]3O)[C@@H](O)[C@H]2O)c2nc(N)nc(O)c21,Ka,[3],12.5 µM⁻¹
same,Ratio,Homo sapiens,> 1
same,fold change (FC),[13],1
C[n+]1cn([C@@H]2O[C@H](COP(=O)([O-])NP(=O)(O)OP(=O)(O)OC[C@H]3O[C@@H](n4cnc5c(=O)[nH]c(N)nc54)[C@H](O)[C@@H]3O)[C@@H](O)[C@H]2O)c2nc(N)[nH]c(=O)c21.N.N,"degraded at 24 h, 5000 µM",[1],< 10%
same,Drug degradation,[2],Not Active
same,Ka,[3],14.6 µM⁻¹
same,Ratio,Homo sapiens,15
same,Drug degradation,[4],Not Active
same,Drug degradation,[5],Not Active
same,"degraded at 24 h, 5000 µM",[6],< 10%
same,Drug degradation,[7],Not Active
same,Ka,[8],218 µM⁻¹
same,"degraded at 24 h, 5000 µM",[9],< 10%
same,IC50,[10],3.74 µM
same,Stability,[11],Stable
same,IC50,[12],3.97 µM
CO[C@@H]1[C@H](O)[C@@H](COP(=O)(O)CP(=O)(O)OP(=O)([O-])OP(=O)(O)OC[C@H]2O[C@@H](n3cnc4c(=O)[nH]c(N)nc43)[C@H](O)[C@@H]2O)O[C@H]1n1c[n+](C)c2c(O)nc(N)nc21,fold change (FC),[13],1.5
Nc1nc2c(ncn2[C@@H]2O[C@H](COP(=O)(O)OP(=O)(O)OP(=O)(O)OC[C@H]3O[C@@H](n4cnc5c(N)ncnc54)[C@H](O)[C@@H]3O)[C@@H](O)[C@H]2O)c(=O)[nH]1,fold change (FC),[13],0.18
CO[C@H]1[C@@H](O)[C@H](n2c[n+](C)c3c(O)nc(N)nc32)O[C@@H]1COP(=O)(O)OP(=O)([O-])OP(=O)(O)OC[C@H]1O[C@@H](n2cnc3c(=O)[nH]c(N)nc32)[C@H](O)[C@@H]1O,fold change (FC),[13],1.47
C[n+]1cn([C@@H]2O[C@H](COP(=O)([O-])OP(=O)(O)OP(=O)(O)NP(=O)(O)OC[C@H]3O[C@@H](n4cnc5c(=O)[nH]c(N)nc54)[C@H](O)[C@@H]3O)[C@@H](O)[C@H]2O)c2nc(N)[nH]c(=O)c21.N.N.N,"degraded at 24 h, 5000 µM",[1],< 10%
same,Drug degradation,[2],Active
same,Ka,[3],141 µM⁻¹
same,Drug degradation,[4],Not Active
same,Drug degradation,[5],Not Active
same,"degraded at 24 h, 5000 µM",[6],< 10%
same,Drug degradation,[7],Not Active
same,"degraded at 24 h, 5000 µM",[9],< 10%
same,IC50,[10],16 µM
same,Stability,[11],Stable
same,IC50,[12],3.52 µM
CO[C@@H]1[C@H](O)[C@@H](COP(=O)(O)OP(=O)([O-])OP(=O)(O)OP(=O)(O)OC[C@H]2O[C@@H](n3cnc4c(=O)[nH]c(N)nc43)[C@H](O)[C@@H]2O)O[C@H]1n1c[n+](C)c2c(O)nc(N)nc21,Drug degradation,[2],Active
same,Ka,[3],99.8 µM⁻¹
same,fold change (FC),[13],1.56
CO[C@@H]1[C@H](O)[C@@H](COP(=O)(O)OP(=O)([O-])OP(=O)(O)OC[C@H]2O[C@@H](n3cnc4c(=O)[nH]c(N)nc43)[C@H](O)[C@@H]2O)O[C@H]1n1c[n+](C)c2c(O)nc(N)nc21,Ka,[3],10.8 µM⁻¹
C[n+]1cn([C@@H]2O[C@H](COP(=O)(O)CP(=O)(O)OP(=O)([O-])OC[C@H]3O[C@@H](n4cnc5c(=O)[nH]c(N)nc54)[C@H](O)[C@@H]3O)[C@@H](O)[C@H]2O)c2nc(N)nc(O)c21,Ka,[3],6.3 µM⁻¹
same,Ratio,Homo sapiens,37.1
CO[C@@H]1[C@H](O)[C@@H](COP(=O)([O-])OP(=O)(O)CP(=O)(O)OC[C@H]2O[C@@H](n3cnc4c(=O)[nH]c(N)nc43)[C@H](O)[C@@H]2O)O[C@H]1n1c[n+](C)c2c(O)nc(N)nc21,fold change (FC),[13],1.25
C[n+]1cn([C@@H]2O[C@H](COP(=O)(O)CP(=O)(O)OP(=O)([O-])OP(=O)(O)OC[C@H]3O[C@@H](n4cnc5c(=O)[nH]c(N)nc54)[C@H](O)[C@@H]3O)[C@@H](O)[C@H]2O)c2nc(N)nc(O)c21,Ka,[3],51.8 µM⁻¹
same,Ratio,Homo sapiens,3.1
C[n+]1cn([C@@H]2O[C@H](COP(=O)(O)OP(=O)([O-])OP(=O)(O)OC[C@H]3O[C@@H](n4cnc5c(=O)[nH]c(N)nc54)[C@H](O)[C@@H]3O)[C@@H](O)[C@H]2O)c2nc(N)[nH]c(=O)c21,IC50,[10],> 20 µM
CO[C@@H]1[C@H](O)[C@@H](COP(=O)([O-])OP(=O)([O-])OP(=O)([O-])NP(=O)([O-])OC[C@H]2O[C@@H](n3cnc4c(=O)[nH]c(N)nc43)[C@H](O)[C@@H]2O)O[C@H]1n1c[n+](C)c2c(=O)[nH]c(N)nc21.[Na+].[Na+].[Na+],Activity,Nucleic Acid,Active
same,"degraded at 24 h, 5000 µM",[1],< 10%
same,Drug degradation,[2],Active
same,Ka,[3],132 µM⁻¹
same,Drug degradation,[4],Not Active
same,Drug degradation,[5],Not Active
same,"degraded at 24 h, 5000 µM",[6],< 10%
same,fold change (FC),[13],1.01
same,Drug degradation,[7],Not Active
same,"degraded at 24 h, 5000 µM",[9],< 10%
same,Stability,[11],Stable
